Values quoted from earlier work as cited in patent US20250381239A1, “METHOD FOR IMPROVING SLEEP QUALITY OR INCREASING SLEEP DURATION AND METHOD FOR RELIEVING PSYCHOLOGICAL STRESS” (TOYO SHINYAKU CO., LTD., priority 2024, published 2025).

Columns and labels:
mice [1] = conditions: water immersion restraint test
mice [2] = conditions: mice subjected only to psychological stress

NC(N)=Nc1nc(CSCCC(N)=NS(N)(=O)=O)cs1 [famotidine]
Effect on physical stress ulcers (mice [1]): effective
Effect on psychological stress ulcers (mice [2]): no effect

CCN1CCCC1CNC(=O)c1cc(S(N)(=O)=O)ccc1OC (stereo not shown) [sulpiride]
Effect on physical stress ulcers (mice [1]): no effect
Effect on psychological stress ulcers (mice [2]): effective
